{
  "source": "patent US12427134B2",
  "about": "“Methods of reducing the risk of cardiovascular events in a subject with atrial fibrillation and/or atrial flutter” (priority 2019, dated 2025)",
  "system": "hypertriglyceridemic patients with cardiovascular disease or at high risk for cardiovascular disease",
  "experiment": "REDUCE-IT: treatment-emergent adverse events and serious adverse events (safety population)",
  "description": "Specification of Variables and Procedures: Safety assessments included adverse events, clinical laboratory measurements (chemistry, hematology), 12-lead ECGs, vital signs (systolic and diastolic blood pressure, heart rate, respiratory rate, and body temperature), weight, waist circumference, and physical examinations as per Study Procedures in Table 1. […] All laboratory test results were evaluated by the investigator as to their clinical significance. Any observations at physical examinations or laboratory values considered by the investigator to be clinically significant were considered an adverse event.\nAn adverse event can therefore be any unfavorable and/or unintended sign (including an abnormal laboratory finding), symptom, or disease temporally associated with the use of an investigational medication product, whether or not related to the investigational medication product. All adverse events, including observed or volunteered problems, complaints, or symptoms, were recorded on the appropriate CRF. Each adverse event was evaluated for duration, intensity, and causal relationship with the study medication or other factors.\nAdverse events, which included clinical laboratory test variables, were monitored from the time of informed consent until study participation was complete. Patients were instructed to report any adverse event that they experienced to the investigator. Beginning with Visit 2, investigators assessed for adverse events at each visit and recorded the event on the appropriate adverse event CRF.\nCausality Assessment: The relationship of an adverse event to the administration of the study drug was assessed according to the following definitions: • No (unrelated, not related, no relation)—The time course between the administration of study drug and the occurrence or worsening of the adverse event rules out a causal relationship and another cause (concomitant drugs, therapies, complications, etc.) is suspected. • Yes (related, probably related, possibly related)—The time course between the administration of study drug and the occurrence or worsening of the adverse event is consistent with a causal relationship and no other cause (concomitant drugs, therapies, complications, etc.) can be identified.\nSerious Adverse Events: A serious adverse event (SAE) is defined as an adverse event that meets any of the following criteria: • Results in death; • Is life-threatening—The term “life-threatening” in the definition of “serious” refers to an event in which the patient was at risk of death at the time of the event. […] Important medical events that may not result in death, be life threatening, or require hospitalization were considered an SAE when, based upon appropriate medical judgment, they may have jeopardized the patient and may have required medical or surgical intervention to prevent one of the outcomes listed above.\nAnalysis of Safety: All analyses of safety were conducted on the safety population, which was defined as all randomized patients. The safety assessment was based on the frequency of adverse events, physical exams, vital signs and safety laboratory tests. AEs with new onset during the study between the initiation of study drug and 30 days after the last dose of study drug for each patient was considered treatment-emergent (TEAEs). This included any AE with onset prior to initiation of study drug and increased severity after the treatment initiation.\nThis included overall incidence rates (regardless of severity and relationship to study drug), and incidence rates for moderate or severe adverse events. A summary of SAEs and adverse events leading to early discontinuation (for ≥30 days) were presented through data listings. Patients who restarted study drug were included in the summary of AEs leading to discontinuation.",
  "data": [
    {"smiles": "CC/C=C\\C/C=C\\C/C=C\\C/C=C\\C/C=C\\CCCC(=O)OCC", "note": "[AMR101, eicosapentaenoic acid ethyl ester]", "values": [
      {"measurement": "TEAE: Respiratory, thoracic, and mediastinal disorders, %", "setting": "Region Westernized (N = 2906)", "value": "(30.9) %"},
      {"measurement": "Diarrhea leading to study drug withdrawal, patients", "setting": "Safety population", "value": 1.1, "unit": "%"},
      {"measurement": "Nausea leading to study drug withdrawal, patients", "setting": "Safety population", "value": 0.6, "unit": "%"},
      {"measurement": "Patients with SAE leading to study drug withdrawal", "setting": "Safety population", "value": 2.2, "unit": "%"},
      {"measurement": "Patients with TEAE leading to study drug withdrawal", "setting": "Safety population", "value": 7.9, "unit": "%"},
      {"measurement": "Patients with at least one SAE", "setting": "Safety population", "value": 30.6, "unit": "%"},
      {"measurement": "Patients with at least one TEAE", "setting": "Safety population", "value": 81.8, "unit": "%"},
      {"measurement": "Patients with serious TEAE leading to death", "setting": "Safety population", "value": 2.3, "unit": "%"},
      {"measurement": "SAE acute kidney injury, patients", "setting": "Safety population", "value": 1.1},
      {"measurement": "SAE angina pectoris, patients", "setting": "Safety population", "value": 1.2, "unit": "%"},
      {"measurement": "SAE chest pain, patients", "setting": "Safety population", "value": 1.6, "unit": "%"},
      {"measurement": "SAE class GI disorders, patients", "setting": "Safety population", "value": 4.7, "unit": "%"},
      {"measurement": "SAE class cardiac disorders, patients", "setting": "Safety population", "value": 4.7, "unit": "%"},
      {"measurement": "SAE class musculoskeletal and connective tissue disorders, patients", "setting": "Safety population", "value": 4.6, "unit": "%"},
      {"measurement": "SAE class neoplasms benign, malignant, and unspecified, patients", "setting": "Safety population", "value": 5.4, "unit": "%"},
      {"measurement": "SAE non-cardiac chest pain, patients", "setting": "Safety population", "value": 1.2, "unit": "%"},
      {"measurement": "SAE osteoarthritis, patients", "setting": "Safety population", "value": 2.0, "unit": "%"},
      {"measurement": "Serious TEAE", "setting": "Safety population", "value": "1252 (30.6%) n (%)"},
      {"measurement": "Serious TEAE Leading to Death", "setting": "Safety population", "value": "94 (2.3%) n (%)"},
      {"measurement": "Serious TEAE Leading to Withdrawal of Study Drug", "setting": "Safety population", "value": "88 (2.2%) n (%)"},
      {"measurement": "Serious TEAE: Pneumonia", "setting": "Safety population", "value": "105 (2.6%) n (%)"},
      {"measurement": "Serious adverse event pneumonia, patients", "setting": "Safety population", "value": 2.6, "unit": "%"},
      {"measurement": "Serious anemia, patients", "setting": "Safety population", "value": 0.5, "unit": "%"},
      {"measurement": "Severe TEAE acute kidney injury, patients", "setting": "Safety population", "value": 0.7, "unit": "%"},
      {"measurement": "Severe TEAE chest pain, patients", "setting": "Safety population", "value": 0.7, "unit": "%"},
      {"measurement": "Severe TEAE osteoarthritis, patients", "setting": "Safety population", "value": 0.8, "unit": "%"},
      {"measurement": "Severe TEAE pneumonia, patients", "setting": "Safety population", "value": 1.5, "unit": "%"},
      {"measurement": "Severe TEAE, patients with at least one", "setting": "Safety population", "value": 19.7, "unit": "%"},
      {"measurement": "Study drug-related SAE, patients with at least one", "setting": "Safety population", "value": 0.2, "unit": "%"},
      {"measurement": "Study drug-related TEAE class GI disorders, patients", "setting": "Safety population", "value": 7.4, "unit": "%"},
      {"measurement": "Study drug-related TEAE diarrhea, patients", "setting": "Safety population", "value": 2.7, "unit": "%"},
      {"measurement": "Study drug-related TEAE leading to study drug withdrawal, patients", "setting": "Safety population", "value": 3.4, "unit": "%"},
      {"measurement": "Study drug-related TEAE, patients with at least one", "setting": "Safety population", "value": 12.6, "unit": "%"},
      {"measurement": "Study drug-related diarrhea leading to study drug withdrawal, patients", "setting": "Safety population", "value": 1.0, "unit": "%"},
      {"measurement": "TEAE Leading to Withdrawal of Study Drug", "setting": "Safety population", "value": "321 (7.9%) n (%)"},
      {"measurement": "TEAE anemia, patients", "setting": "Safety population", "value": 4.7, "unit": "%"},
      {"measurement": "TEAE atrial fibrillation, patients", "setting": "Safety population", "value": 5.3, "unit": "%"},
      {"measurement": "TEAE class GI disorders leading to study drug withdrawal, patients", "setting": "Safety population", "value": 3.6, "unit": "%"},
      {"measurement": "TEAE class general disorders and administration site conditions, patients", "setting": "Safety population", "value": 25.2, "unit": "%"},
      {"measurement": "TEAE class musculoskeletal and connective tissue disorders, patients", "setting": "Safety population", "value": 35.9, "unit": "%"},
      {"measurement": "TEAE class nervous system disorders, patients", "setting": "Safety population", "value": 24.6, "unit": "%"},
      {"measurement": "TEAE constipation, patients", "setting": "Safety population", "value": 5.4, "unit": "%"},
      {"measurement": "TEAE diarrhea, patients", "setting": "Safety population", "value": 9, "unit": "%"},
      {"measurement": "TEAE gastrointestinal disorders, patients", "setting": "Safety population", "value": 33.0, "unit": "%"},
      {"measurement": "TEAE of special interest: abnormal glucose control, patients", "setting": "Safety population", "value": 15.2, "unit": "%"},
      {"measurement": "TEAE of special interest: hepatic disorders, patients", "setting": "Safety population", "value": 5.4, "unit": "%"},
      {"measurement": "TEAE peripheral edema, patients", "setting": "Safety population", "value": 6.5, "unit": "%"},
      {"measurement": "TEAE: Anemia", "setting": "Safety population", "value": "191 (4.7%) n (%)"},
      {"measurement": "TEAE: Angina pectoris", "setting": "Safety population", "value": "200 (4.9%) n (%)"},
      {"measurement": "TEAE: Arthralgia", "setting": "Safety population", "value": "313 (7.7%) n (%)"},
      {"measurement": "TEAE: Atrial fibrillation", "setting": "Safety population", "value": "215 (5.3%) n (%)"},
      {"measurement": "TEAE: Back pain", "setting": "Safety population", "value": "335 (8.2%) n (%)"},
      {"measurement": "TEAE: Bronchitis", "setting": "Safety population", "value": "306 (7.5%) n (%)"},
      {"measurement": "TEAE: Cataract", "setting": "Safety population", "value": "233 (5.7%) n (%)"},
      {"measurement": "TEAE: Chest pain", "setting": "Safety population", "value": "273 (6.7%) n (%)"},
      {"measurement": "TEAE: Constipation", "setting": "Safety population", "value": "221 (5.4%) n (%)"},
      {"measurement": "TEAE: Cough", "setting": "Safety population", "value": "241 (5.9%) n (%)"},
      {"measurement": "TEAE: Diarrhea", "setting": "Safety population", "value": "367 (9.0%) n (%)"},
      {"measurement": "TEAE: Dizziness", "setting": "Safety population", "value": "235 (5.7%) n (%)"},
      {"measurement": "TEAE: Dyspnea", "setting": "Safety population", "value": "254 (6.2%) n (%)"},
      {"measurement": "TEAE: Fatigue", "setting": "Safety population", "value": "228 (5.6%) n (%)"},
      {"measurement": "TEAE: Gastroesophageal Reflux Disease", "setting": "Safety population", "value": "124 (3.0%) n (%)"},
      {"measurement": "TEAE: Gastrointestinal disorders", "setting": "Safety population", "value": "1350 (33.0%) n (%)"},
      {"measurement": "TEAE: Hypertension", "setting": "Safety population", "value": "320 (7.8%) n (%)"},
      {"measurement": "TEAE: Influenza", "setting": "Safety population", "value": "263 (6.4%) n (%)"},
      {"measurement": "TEAE: Nasopharyngitis", "setting": "Safety population", "value": "314 (7.7%) n (%)"},
      {"measurement": "TEAE: Nausea", "setting": "Safety population", "value": "190 (4.6%) n (%)"},
      {"measurement": "TEAE: Osteoarthritis", "setting": "Safety population", "value": "241 (5.9%) n (%)"},
      {"measurement": "TEAE: Pain in extremity", "setting": "Safety population", "value": "235 (5.7%) n (%)"},
      {"measurement": "TEAE: Peripheral edema", "setting": "Safety population", "value": "267 (6.5%) n (%)"},
      {"measurement": "TEAE: Pneumonia", "setting": "Safety population", "value": "263 (6.4%) n (%)"},
      {"measurement": "TEAE: Upper respiratory tract infection", "setting": "Safety population", "value": "312 (7.6%) n (%)"},
      {"measurement": "TEAE: Urinary tract infection", "setting": "Safety population", "value": "253 (6.2%) n (%)"},
      {"measurement": "TEAE of special interest: Hepatic disorders, %", "setting": "Safety population N = 4089, P-value 0.3180", "value": "(5.4) %"},
      {"measurement": "TEAE of special interest: Abnormal glucose control, %", "setting": "Safety population N = 4089, P-value 0.8059", "value": "(15.2) %"},
      {"measurement": "CEC-adjudicated CV deaths (excluding deaths with undetermined cause), %", "setting": "Safety population, N = 4089", "value": "(3.4) %"},
      {"measurement": "CEC-adjudicated Deaths with undetermined cause, %", "setting": "Safety population, N = 4089", "value": "(0.9) %"},
      {"measurement": "CEC-adjudicated Non-CV deaths, %", "setting": "Safety population, N = 4089", "value": "(2.4) %"},
      {"measurement": "CEC-adjudicated deaths: Total mortality, %", "setting": "Safety population, N = 4089", "value": "(6.7) %"},
      {"measurement": "Patients with at least 1 TEAE, %", "setting": "Safety population, N = 4089", "value": "(81.8) %"},
      {"measurement": "Patients with at least 1 serious TEAE, % patients", "setting": "Safety population, N = 4089", "value": "(30.6) %"},
      {"measurement": "Patients with at least 1 serious TEAE, n patients", "setting": "Safety population, N = 4089", "value": 1252},
      {"measurement": "Patients with at least 1 severe TEAE, %", "setting": "Safety population, N = 4089", "value": "(19.7) %"},
      {"measurement": "Patients with at least 1 study drug-related TEAE leading to study drug withdrawal, % patients", "setting": "Safety population, N = 4089", "value": "(3.4) %"},
      {"measurement": "Patients with at least 1 study drug-related TEAE leading to study drug withdrawal, n patients", "setting": "Safety population, N = 4089", "value": 139},
      {"measurement": "Patients with at least 1 study drug-related TEAE, %", "setting": "Safety population, N = 4089", "value": "(12.6) %"},
      {"measurement": "Serious TEAE Leading to Death, %", "setting": "Safety population, N = 4089", "value": "(2.3) %"},
      {"measurement": "Serious TEAE Leading to Withdrawal of Study Drug, %", "setting": "Safety population, N = 4089", "value": "(2.2) %"},
      {"measurement": "Serious TEAE, %", "setting": "Safety population, N = 4089", "value": "(30.6) %"},
      {"measurement": "Serious adverse event - Acute kidney injury, % patients", "setting": "Safety population, N = 4089", "value": "(1.1) %"},
      {"measurement": "Serious adverse event - Acute kidney injury, n patients", "setting": "Safety population, N = 4089", "value": 47},
      {"measurement": "Serious adverse event - Acute respiratory failure, % patients", "setting": "Safety population, N = 4089", "value": "(0.5) %"},
      {"measurement": "Serious adverse event - Acute respiratory failure, n patients", "setting": "Safety population, N = 4089", "value": 19},
      {"measurement": "Serious adverse event - Anemia, % patients", "setting": "Safety population, N = 4089", "value": "(0.5) %"}
    ]}
  ]
}
